Data published in US8357518B2, “Thermostable enzymes for the hydrolysis of mannan-containing polysaccharides” (The Board of Trustees of the University of Illinois, priority 2010, dated 2013).
Substitutions are numbered along the chain they refer to.

Legend:
Type in all cases: biochemical
[1] = target: T1, Caldanaerobius polysaccharolyticus endo-β-mannanase Man5B, wild type, SEQ ID NO: 31 (Caldanaerobius polysaccharolyticus, UniProt D9J0D7); assay: Catalytic efficiency with oligosaccharides, HPAEC (Man5B); settings: value for GM3 higher than that for GM2
Protocol: Cloning, expression, and purification of Man5A-TM1, Man5A-TM2 and Man5B. C. polysaccharolyticus was cultured in TYG medium and DNA was isolated from mid-log cultures and purified using the Qiagen DNeasy Blood and Tissue kit with an integrated RNase treatment step. The genome of C. polysaccharolyticus was partially sequenced by the W. M. Keck Biotechnology Center at the University of Illinois at Urbana-Champaign. A Newbler assembly was generated which is comprised of ½ plate of FLX PE 454 data and ½ plate of 8 kb paired-end GSFLX Titanium data using a Genome Sequencer instrument from 454 Life Sciences (Branford, Conn.). The partial genome sequence was uploaded onto the Rapid Annotation using Subsystem Technology (RAST) server (Aziz et al., BMC Genomics, 9:75, 2008). Auto-annotation of the C. polysaccharolyticus partial genome sequence identified ORF0760 as a gene predicted to encode a bifunctional β-D-mannanase/endoglucanase (Man5B). Man5A was previously identified in a recombinant phage library of C. polysaccharolyticus genomic DNA, which was screened for endoglucanase activity (Cann et al., J Bacteriol, 181:1643, 1999) and the full sequence of this gene was also identified in the partial genome sequence for C. polysaccharolyticus. […]

[2] = target: T2, Caldanaerobius polysaccharolyticus endo-β-mannanase Man5B (SEQ ID NO: 31) variant E137Q (Caldanaerobius polysaccharolyticus, UniProt D9J0D7, E137Q); assay: Kinetic properties with pNP-linked sugars (Man5B E137Q); settings: relative to wild type
T2 sequence (D9J0D7 1-330 E137Q): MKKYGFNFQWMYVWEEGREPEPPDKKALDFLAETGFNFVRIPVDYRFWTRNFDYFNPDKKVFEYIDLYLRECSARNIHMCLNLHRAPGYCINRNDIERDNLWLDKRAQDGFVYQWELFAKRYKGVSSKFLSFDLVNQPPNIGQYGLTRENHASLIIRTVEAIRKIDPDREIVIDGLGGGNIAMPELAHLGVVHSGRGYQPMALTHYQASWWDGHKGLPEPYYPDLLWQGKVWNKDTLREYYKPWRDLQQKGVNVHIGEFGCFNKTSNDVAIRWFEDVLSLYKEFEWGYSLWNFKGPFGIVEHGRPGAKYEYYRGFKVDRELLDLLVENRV
Protocol: (§1) Determination of kinetic properties for wild type and mutant Man5B with pNP-linked sugars. Kinetic properties of wild type and mutant Man5B were determined for pNP-β-D-mannopyranoside and pNP-β-D-cellobioside. The substrate concentrations ranged from 0.06 to 10 mM and reactions were performed at 65° C. in citrate buffer (50 mM sodium citrate, pH 5.5). The reactions were equilibrated to 65° C. using a thermostated Cary 300 UV-Vis spectrophotometer, and the reactions were initiated by the addition of wild type (5 nM, final concentration) or mutant (2 μM, final concentration) Man5B. The rate of pNP release was determined by continuously monitoring the absorbance at 400 nm. Initial rate data were then plotted against the substrate concentrations, and the values of the Michaelis-Menten constant (KM) and the maximum velocity (Vmax) were estimated from a nonlinear curve fit using GraphPad Prism v5.01 from GraphPad Software (San Diego, Calif.). The kcat was calculated as the quotient of the Vmax and the concentration of enzyme used in the reaction.
(§2) Site-directed mutagenesis. Mutagenesis was carried out using PCR-based […] […]
(§3) Next, to test whether the mutations introduced in Man5B had any effects on the catalytic activity of this enzyme, the catalytic parameters for the wild type and mutant enzymes were determined using pNP-β-D-cellobioside and pNP-β-D-mannopyranoside as substrates.

[3] = target: T3, Caldanaerobius polysaccharolyticus endo-β-mannanase Man5B (SEQ ID NO: 31) variant E258A (Caldanaerobius polysaccharolyticus, UniProt D9J0D7, E258A); assay: Kinetic properties with pNP-linked sugars (Man5B E258A); settings: relative to wild type
T3 sequence (D9J0D7 1-330 E258A): T2 sequence (D9J0D7 1-330 E137Q) with Q137E, E258A
Protocol: as §1, §2, §3

[4] = target: T4, Caldanaerobius polysaccharolyticus endo-β-mannanase Man5B (SEQ ID NO: 31) variant E137A (Caldanaerobius polysaccharolyticus, UniProt D9J0D7, E137A); assay: Kinetic properties with pNP-linked sugars (Man5B E137A); settings: relative to wild type
T4 sequence (D9J0D7 1-330 E137A): T2 sequence (D9J0D7 1-330 E137Q) with Q137A
Protocol: as §1, §2, §3

[5] = target: T5, Caldanaerobius polysaccharolyticus endo-β-mannanase Man5B (SEQ ID NO: 31) variant E258Q (Caldanaerobius polysaccharolyticus, UniProt D9J0D7, E258Q); assay: Kinetic properties with pNP-linked sugars (Man5B E258Q); settings: relative to wild type
T5 sequence (D9J0D7 1-330 E258Q): T2 sequence (D9J0D7 1-330 E137Q) with Q137E, E258Q
Protocol: as §1, §2, §3

[6] = target: T1, Caldanaerobius polysaccharolyticus endo-β-mannanase Man5B, wild type, SEQ ID NO: 31; assay: Kinetic properties with pNP-linked sugars (Man5B wild type); settings: reference
Protocol: The plasmid constructs were then introduced into E. coli BL-21 CodonPlus (DE3) RIL competent cells by heat shock, and grown overnight in lysogeny broth (LB) agar medium supplemented with ampicillin (100 μg/mL) and chloramphenicol (50 μg/mL) at 37° C. After 12 h, single colonies were selected and used to inoculate fresh LB (10 mL) supplemented with the antibiotics above at the same concentrations, followed by culturing with aeration for 8 h at 37° C. The pre-cultures were then inoculated into fresh LB (1 L) supplemented with ampicillin and chloramphenicol and the cultures were incubated at 37° C. with vigorous aeration (225 rpm/min). […] Aliquots of eluted fractions were analyzed by sodium dodecyl sulfate-polyacrylamide gel electrophoresis (SDS-PAGE) and protein bands were visualized by staining with Coomassie brilliant blue G-250. […] The UV absorbances of the protein solutions were recorded at 280 nm using a Nanoprop 1000 from Thermo Scientific (Waltham, Mass.) and the protein concentrations were calculated using the following extinction coefficients: Man5A-TM1, ε280 nm=189 mM^−1 cm^−1; Man5A-TM2, ε280 nm=113 mM^−1 cm^−1; Man5B, ε280 nm=103 mM^−1 cm^−1.
Determination of kinetic properties for wild type and mutant Man5B with pNP-linked sugars. Kinetic properties of wild type and mutant Man5B were determined for pNP-β-D-mannopyranoside and pNP-β-D-cellobioside. […]

T1 sequence (D9J0D7 entry or part of it): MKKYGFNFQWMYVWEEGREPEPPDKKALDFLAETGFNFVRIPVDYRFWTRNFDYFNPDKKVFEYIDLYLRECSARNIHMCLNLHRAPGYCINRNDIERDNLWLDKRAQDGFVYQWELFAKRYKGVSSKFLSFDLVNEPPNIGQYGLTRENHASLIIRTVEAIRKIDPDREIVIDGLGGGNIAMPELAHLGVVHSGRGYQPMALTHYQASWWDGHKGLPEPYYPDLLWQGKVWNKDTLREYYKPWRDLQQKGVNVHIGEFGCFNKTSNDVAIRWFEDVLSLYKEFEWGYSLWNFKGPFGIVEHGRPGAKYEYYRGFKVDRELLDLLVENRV

catalytic efficiency (kcat/Km), GM3 relative to GM2 [1] | SMILES | rkcat (residual kcat) [2] | rkcat (residual kcat) [3] | rkcat (residual kcat) [4] | rkcat (residual kcat) [5] | rkcat (residual kcat) [6]
20 fold | OC[C@H]1O[C@H](OC[C@H]2OC(O)[C@@H](O)[C@@H](O)[C@@H]2O[C@@H]2O[C@H](CO)[C@@H](O[C@@H]3O[C@H](CO)[C@@H](O)[C@H](O)[C@@H]3O)[C@H](O)[C@@H]2O)[C@H](O)[C@@H](O)[C@H]1O (stereo partly drawn) [6-galactosyl-mannotriose, α-1,6-galactosyl-mannotriose] |  |  |  |  | 
 | O=[N+]([O-])c1ccc(O[C@@H]2O[C@H](CO)[C@@H](O[C@@H]3O[C@H](CO)[C@@H](O)[C@H](O)[C@H]3O)[C@H](O)[C@H]2O)cc1 [pNP-cellobioside, pNP-β-D-cellobioside] | 1.96% | 0.55% | 0.48% | 0.62% | 100%
 | O=[N+]([O-])c1ccc(O[C@@H]2O[C@H](CO)[C@@H](O)[C@H](O)[C@@H]2O)cc1 [pNP-β-D-mannopyranoside] | 0.04% | 0.04% | 0.04% | 0.03% | 100%
